This note sets out measurements from patent publication US8613931B2, “Compounds for treating beta-amyloidoses” (Affiris AG, priority 2008, dated 2013).

Assay [1] deals with monoclonal antibody MV-003. In words: In vitro inhibition assay (ELISA), MV-003 binding to original epitope. The note with it: OD at 10 μg peptide compared to original peptide. The arrangement: species or system BalbC mice. The procedure:
2. In vitro inhibition assay (ELISA)
Different amounts of peptides (concentrations ranging from 10 μg to 0.08 μg; serial dilutions), derived from Phage Display were incubated with the monoclonal antibody that was used for the screening procedure. Peptides diminishing subsequent binding of the antibody to the original epitope coated on ELISA plates were considered as inhibiting in this assay.
In general terms: In an ELISA, binding on a coated surface is turned into a signal by an enzyme label.

In assay [2] the test system is p4371. As to the kind of experiment: Mimotope vaccination, serum reactivity against p4371. Format: in vivo, C57/bl6 mice. The note with it: sera of mice s.c. immunized with 30 μg peptide coupled to KLH, alum. The procedure: (§1) Inhibiting as well as non-inhibiting peptides were coupled to KLH and injected into mice (wildtype C57/Bl6 mice; subcutaneous injection into the flank) together with an appropriate adjuvant (aluminium hydroxide). Animals were vaccinated 3-6 times in biweekly intervals and sera were taken biweekly as well. Titers to injected peptides, as well as to an irrelevant peptide were determined with every serum. Furthermore, titers against the recombinant human Aβ protein, and against original peptides were determined respectively. In general sera were analysed by reaction against peptides coupled to Bovine Serum Albumin (BSA) and recombinant full length proteins which were immobilised on ELISA plates. Titers were determined using anti mouse IgG specific antibodies. For detailed results see FIGS. 6, 7 and 8 respectively.
(§2) Female C57/bl6 mice, 5-6 mice per group, were subcutaneously immunized with 30 μg peptide coupled to KLH. Control groups were administered original epitope-KLH conjugates respectively. As adjuvant alum was used (always 1 mg per mouse). […] The in vitro ELISA assay to determine the antibody titer was performed with sera of single mice after each vaccination in a two week interval (see FIGS. 6 and 7 respectively). The wells of the ELISA plate were coated with mimotope-BSA conjugate and an irrelevant peptide-BSA conjugate (negative control). […]

Assay [3] relates to Tg2576 AD mouse model. In words: Area occupied by amyloid plaques in Tg2576 mice after mimotope vaccination. The note with it: Tg2576, 6 s.c. injections at monthly intervals, peptide-KLH conjugate with ALUM. Format: in vivo.
Assay [4] deals with full length and/or truncated and modified forms of Aβ. As to the kind of experiment: In vivo characterisation of mimotopes: detection of Aβ/truncated/modified forms. The arrangement: species or system C57/bl6 mice; key: +: All peptides listed in Table 5 mount specific immune reactions against full length and/or truncated and modified forms of Aβ or fragments thereof. The note with it: MV-003 derived mimotopes; mimotope vaccination. The procedure: as §1
Female C57/bl6 mice, 5-6 mice per group, were subcutaneously immunized with 30 μg peptide coupled to KLH. Control groups were administered original epitope-KLH conjugates respectively. As adjuvant alum was used (always 1 mg per mouse). […] The in vitro ELISA assay to determine the antibody titer was performed with sera of single mice after each vaccination in a two week interval (see FIGS. 6 and 7 respectively). The wells of the ELISA plate were coated with mimotope-BSA conjugate and an irrelevant peptide-BSA conjugate (negative control). The positive control was performed by reaction of the parental antibody with the respective mimotope-BSA conjugate. The detection was performed with anti-mouse IgG. Additionally, recombinant proteins were immobilised on ELISA plates and sera reacted accordingly. FIGS. 6 to 8 show representative examples for assays used to characterise mimotopes in vivo.

Assay [5] deals with p4373. As to the kind of experiment: Mimotope vaccination, serum reactivity against p4373. Format: in vivo, C57/bl6 mice. The note with it: sera of mice s.c. immunized with 30 μg peptide coupled to KLH, alum. Here is the method:
as §1, §2

Assay [6] relates to monoclonal antibody MV-003. In words: In vitro binding assay (ELISA), parental antibody MV-003. The arrangement: species or system BalbC mice. The note with it: peptide-BSA on ELISA plate; OD halfmax, dilution factor 1:X of parental AB MV-003. Here is the method:
1. In vitro binding assay (ELISA)
Peptides derived from Phage Display as well as variants thereof were coupled to BSA and bound to ELISA plates (1 μM; as indicated in the respective figures) and subsequently incubated with the monoclonal antibody that was used for the screening procedure to analyse binding capacity of identified peptides.

Assay [7] addresses monoclonal antibody MV-003. As to the kind of experiment: ELISA, peptide-BSA coated, MV-003. The note with it: for Binding Capacity: scale: code.
Assay [8] deals with monoclonal antibody MV-003. In words: inhibition ELISA; competitor: coated original epitope p4373.

Square brackets hold non-standard residues; d marks the D form. Ends that are not written are not given here. pGlu = O=C1CC[C@@H](C(=O)O)N1

With IRWDGC [p4792], the “Inhibition Capacity” value in assay [1] is reported as 1 (Weaker than original epitope (OD of 10 μg peptide below 12 times of original peptide)).

In the case of p(E)FRHDS-C ([pGlu]FRHDSC) [p4373], in assay [2], the “immune response against p4371” value is “mount relevant titers”.

For the molecule IRWDTPC [p4395], in assay [1], the “Inhibition Capacity” value is 1 (Weaker than original epitope (OD of 10 μg peptide below 12 times of original peptide)). The “average area occupied by amyloid plaques” value in assay [3] (mAb 3A5 staining, control group 0.35%) came out at 0.21%. In addition, in assay [3] (versus control group), the “reduction of area occupied by amyloid plaques following mimotope treatment” value amounted to 38%. Further, in assay [4], the “Detection of Aβ/truncated/modified forms” value was “+”.

On to EFRHDS-C (EFRHDSC) [p4371], for which the “immune response against p4373” value in assay [5] was “mount relevant titers”. On to IRWDGGC [p4793], for which the “Inhibition Capacity” value in assay [1] is 1 (Weaker than original epitope (OD of 10 μg peptide below 12 times of original peptide)). VRWDVYPC [p4396]: the “Detection of Aβ/truncated/modified forms” value in assay [4] was “+”. IRYDAPLC [p4397]: the “Inhibition Capacity” value in assay [1] is given as 1 (Weaker than original epitope (OD of 10 μg peptide below 12 times of original peptide)). Besides, the “Detection of Aβ/truncated/modified forms” value in assay [4] was “+”. Regarding IRWDTSLC [p4728], in assay [6], the “Binding Capacity” value is on record as 3 (strong binding :>60000). In assay [1], the “Inhibition Capacity” value is 2 (strong inhibition (as original epitope; OD of 10 μg peptide below 5 times of original peptide)).

On to IRWDQPC [p4756], for which, in assay [6], the “Binding Capacity” value is given as 3 (strong binding :>60000). Further, in assay [1], the “Inhibition Capacity” value is 1 (Weaker than original epitope (OD of 10 μg peptide below 12 times of original peptide)). In the case of IRYDMAGC [p4399], the “Detection of Aβ/truncated/modified forms” value in assay [4] is recorded as “+”.

B1: p4792 (peptide)
peptide: IRWDGC
On to B1, for which the Binding Capacity (code (weak binding, OD halfmax 1:<16000)) in assay [7] was 1. For the same molecule, the Inhibition Capacity (code (weaker than original epitope)) in assay [8] was 1.

B2: p4793 (peptide)
peptide: IRWDGGC
The molecule B2 came in with a Binding Capacity in assay [7] of 2. In assay [8], this molecule came in with an Inhibition Capacity (code (weaker than original epitope)) of 1.

B3: p4756 (peptide)
peptide: IRWDQPC
B3 came in with a Binding Capacity in assay [7] of 3. The molecule further returned an Inhibition Capacity (code (weaker than original epitope)) in assay [8] of 1.
